Assay results published in ChEMBL document CHEMBL3763041, “Design and synthesis of new imidazo[1,2-a]pyridine and imidazo[1,2-a]pyrazine derivatives with antiproliferative activity against melanoma cells” (Eur J Med Chem, 2016).
pIC50: −log10 of the molar value.

Experiment: Antiproliferative activity against human A375P cells expressing BRAF V600E mutant after 72 hrs by CellTiter-Glo assay
Format: functional, cell-based

`Cc1cc(C)cc(C(=O)Nc2cccc(-c3cnc4c(NC(=O)c5ccccc5)cccn34)c2)c1` and `Cc1ccc(C)c(C(=O)Nc2cccc(-c3cnc4c(NC(=O)c5ccccc5)cccn34)c2)c1` cannot be ordered by pIC50: less than 4.52 for the first, less than 4.52 for the second.

Going from `Cc1ccc(C(=O)Nc2cccc(-c3cnc4c(N)nccn34)c2)cc1Cl` to `Nc1nccn2c(-c3cccc(NC(=O)c4ccc(F)c(Cl)c4)c3)cnc12`, the pIC50 rises from 5.64 to 6.47 (0.83 log units).

Going from `Nc1nccn2c(-c3cccc(NC(=O)c4cc(Cl)c(F)c(Cl)c4)c3)cnc12` to `Nc1nccn2c(-c3cccc(NC(=O)c4ccc(Cl)c(Cl)c4)c3)cnc12`, the pIC50 rises from 5.39 to 5.92 (0.53 log units). The second is the more potent here.

`Nc1nccn2c(-c3cccc(NC(=O)Nc4ccc(F)c(Cl)c4)c3)cnc12` and `Nc1nccn2c(-c3cccc(NC(=O)Nc4cccc(Cl)c4)c3)cnc12` are within 0.2 log units of each other in pIC50: 5.36 for the first, 5.30 for the second.

`Nc1nccn2c(-c3cccc(NC(=O)c4ccc(Cl)c(C(F)(F)F)c4)c3)cnc12` and `Nc1nccn2c(-c3cccc(NC(=O)c4ccc(F)c(C(F)(F)F)c4)c3)cnc12` are within 0.2 log units of each other in pIC50: 5.85 for the first, 5.67 for the second.

First: Nc1nccn2c(-c3cccc(NC(=O)Nc4ccc(F)cc4F)c3)cnc12
Second: Nc1nccn2c(-c3cccc(NC(=O)c4ccc(F)cc4F)c3)cnc12
The pIC50 of the first is 0.90 log units higher: 6.04 for the first, 5.14 for the second. The first is the more potent here.

First: COc1cc(C(=O)Nc2cccc(-c3cnc4c(N)nccn34)c2)cc(OC)c1OC
Second: COc1ccc(C(=O)Nc2cccc(-c3cnc4c(N)nccn34)c2)cc1OC
The pIC50 of the first is 0.39 log units higher: 5.81 for the first, 5.42 for the second. The first is the more potent here.

Going from `Nc1nccn2c(-c3cccc(NC(=O)c4ccc(C(F)(F)F)cc4)c3)cnc12` to `Nc1nccn2c(-c3cccc(NC(=O)c4ccc(OC(F)(F)F)cc4)c3)cnc12`, the pIC50 rises from 5.15 to 6.37 (1.22 log units). The second is the more potent here.

First: O=C(Nc1cccc(-c2cnc3c(NC(=O)c4ccccc4)nccn23)c1)c1ccc(Cl)c(C(F)(F)F)c1
Second: O=C(Nc1cccc(-c2cnc3c(NC(=O)c4ccccc4)nccn23)c1)c1ccc(F)c(Cl)c1
The pIC50 of the first is 0.20 log units lower: 5.74 for the first, 5.94 for the second. The second is the more potent here.

`Cc1ccc(C(=O)Nc2cccc(-c3cnc4c(NC(=O)c5ccccc5)cccn34)c2)cc1Cl` and `O=C(Nc1cccc(-c2cnc3c(NC(=O)c4ccccc4)cccn23)c1)c1ccc(F)c(Cl)c1` are within 0.2 log units of each other in pIC50: 5.15 for the first, 5.09 for the second.

`Nc1nccn2c(-c3cccc(NC(=O)Nc4cc(C(F)(F)F)cc(C(F)(F)F)c4)c3)cnc12` and `Nc1nccn2c(-c3cccc(NC(=O)c4cc(C(F)(F)F)cc(C(F)(F)F)c4)c3)cnc12` are within 0.2 log units of each other in pIC50: 5.04 for the first, 5.08 for the second.

Going from `O=C(Nc1cccc(Cl)c1)Nc1cccc(-c2cnc3c(NC(=O)c4ccccc4)cccn23)c1` to `O=C(Nc1cccc(-c2cnc3c(NC(=O)c4ccccc4)cccn23)c1)Nc1ccc(Cl)c(Cl)c1`, the pIC50 rises from 5.13 to 5.35 (0.22 log units). The second is the more potent here.

Compared with `O=C(Nc1cccc(-c2cnc3c(NC(=O)c4cc(C(F)(F)F)cc(C(F)(F)F)c4)nccn23)c1)c1ccc(Cl)c(C(F)(F)F)c1`, `O=C(Nc1cccc(-c2cnc3c(NC(=O)c4cc(C(F)(F)F)cc(C(F)(F)F)c4)nccn23)c1)c1ccc(F)c(Cl)c1` is 0.32 log units lower in pIC50: 6.26 for the first, 5.94 for the second.

`O=C(Nc1cccc(-c2cnc3c(NC(=O)c4cccc(OC(F)(F)F)c4)nccn23)c1)c1ccc(F)c(Cl)c1` and `O=C(Nc1cccc(-c2cnc3c(NC(=O)c4cccc(C(F)(F)F)c4)nccn23)c1)c1ccc(F)c(Cl)c1` are within 0.2 log units of each other in pIC50: 5.82 for the first, 5.97 for the second.

Going from `O=C(Nc1cccc(-c2cnc3c(NC(=O)c4ccccc4)cccn23)c1)c1ccc(C(F)(F)F)cc1` to `O=C(Nc1cccc(-c2cnc3c(NC(=O)c4ccccc4)cccn23)c1)c1ccc(OC(F)(F)F)cc1`, the pIC50 falls from 5.77 to 4.67 (1.10 log units).

Compared with `O=C(Nc1cccc(-c2cnc3c(NC(=O)c4ccccc4)cccn23)c1)c1ccc(Br)cc1`, `O=C(Nc1cccc(-c2cnc3c(NC(=O)c4ccccc4)cccn23)c1)c1ccccc1` is lower in pIC50: 5.20 for the first, less than 4.52 for the second. The first is the more potent here.

First: O=C(Nc1cccc(-c2cnc3c(NC(=O)c4ccc(Cl)c(C(F)(F)F)c4)nccn23)c1)c1ccc(F)c(Cl)c1
Second: O=C(Nc1cccc(-c2cnc3c(NC(=O)c4ccc(F)c(Cl)c4)nccn23)c1)c1ccc(Cl)c(C(F)(F)F)c1
The pIC50 of the first is 0.43 log units higher: 5.97 for the first, 5.54 for the second.

Going from `O=C(Nc1cccc(-c2cnc3c(NC(=O)c4cc(F)cc(F)c4)nccn23)c1)c1ccc(Cl)c(C(F)(F)F)c1` to `O=C(Nc1cccc(-c2cnc3c(NC(=O)c4cc(F)cc(F)c4)nccn23)c1)c1ccc(F)c(Cl)c1`, the pIC50 rises from 5.79 to 6.35 (0.56 log units).

First: O=C(Nc1cccc(-c2cnc3c(NC(=O)c4ccc(Cl)c(Cl)c4)nccn23)c1)c1ccc(Cl)c(C(F)(F)F)c1
Second: Cc1ccc(C(=O)Nc2nccn3c(-c4cccc(NC(=O)c5ccc(Cl)c(C(F)(F)F)c5)c4)cnc23)cc1Cl
The pIC50 of the first is 0.63 log units higher: 6.18 for the first, 5.55 for the second.

Compared with `Cc1cc(C)cc(C(=O)Nc2cccc(-c3cnc4c(N)nccn34)c2)c1`, `Nc1nccn2c(-c3cccc(NC(=O)c4cc(Cl)cc(Cl)c4)c3)cnc12` is 0.56 log units lower in pIC50: 6.09 for the first, 5.53 for the second. The first is the more potent here.

Compared with `O=C(Nc1cccc(-c2cnc3c(NC(=O)c4ccc(F)c(C(F)(F)F)c4)nccn23)c1)c1ccc(Cl)c(C(F)(F)F)c1`, `O=C(Nc1cccc(-c2cnc3c(NC(=O)c4ccc(Cl)c(C(F)(F)F)c4)nccn23)c1)c1ccc(Cl)c(C(F)(F)F)c1` is 0.73 log units lower in pIC50: 6.34 for the first, 5.61 for the second. The first is the more potent here.

`O=C(Nc1cccc(-c2cnc3c(NC(=O)c4ccccc4)cccn23)c1)c1ccc(F)c(C(F)(F)F)c1` and `O=C(Nc1cccc(-c2cnc3c(NC(=O)c4ccccc4)cccn23)c1)c1ccc(Cl)c(C(F)(F)F)c1` cannot be ordered by pIC50: less than 4.52 for the first, less than 4.52 for the second.

First: O=C(Nc1cccn2c(-c3cccc(NC(=O)c4cccc(Cl)c4Cl)c3)cnc12)c1ccccc1
Second: O=C(Nc1cccc(-c2cnc3c(NC(=O)c4ccccc4)cccn23)c1)Nc1cccc(Cl)c1Cl
The pIC50 of the first is lower: less than 4.52 for the first, 4.80 for the second. The second is the more potent here.

`COc1ccc(C(=O)Nc2cccc(-c3cnc4c(NC(=O)c5ccccc5)cccn34)c2)cc1OC` and `O=C(Nc1cccc(-c2cnc3c(NC(=O)c4ccccc4)cccn23)c1)c1cc(F)cc(F)c1` are within 0.2 log units of each other in pIC50: 5.02 for the first, 5.10 for the second.

Going from `Nc1nccn2c(-c3cccc(NC(=O)Nc4ccc(Cl)c(C(F)(F)F)c4)c3)cnc12` to `Nc1nccn2c(-c3cccc(NC(=O)Nc4cccc(C(F)(F)F)c4)c3)cnc12`, the pIC50 rises from 4.95 to 5.28 (0.33 log units). The second is the more potent here.

`O=C(Nc1cccc(-c2cnc3c(NC(=O)c4ccc(Br)cc4)nccn23)c1)c1ccc(F)c(Cl)c1` and `O=C(Nc1cccc(-c2cnc3c(NC(=O)c4ccc(C(F)(F)F)cc4)nccn23)c1)c1ccc(F)c(Cl)c1` are within 0.2 log units of each other in pIC50: 6.31 for the first, 6.25 for the second.

First: O=C(Nc1cccc(-c2cnc3c(NC(=O)c4cccc(OC(F)(F)F)c4)nccn23)c1)c1ccc(Cl)c(C(F)(F)F)c1
Second: O=C(Nc1cccc(-c2cnc3c(NC(=O)c4cccc(C(F)(F)F)c4)nccn23)c1)c1ccc(Cl)c(C(F)(F)F)c1
The pIC50 of the first is 1.09 log units higher: 5.99 for the first, 4.90 for the second. The first is the more potent here.

Going from `Nc1nccn2c(-c3cccc(NC(=O)c4cccc(C(F)(F)F)c4)c3)cnc12` to `Nc1nccn2c(-c3cccc(NC(=O)c4cccc(OC(F)(F)F)c4)c3)cnc12`, the pIC50 falls from 5.68 to 4.86 (0.82 log units).

Going from `O=C(Nc1cccc(-c2cnc3c(NC(=O)c4cc(Cl)c(F)c(Cl)c4)nccn23)c1)c1ccc(Cl)c(C(F)(F)F)c1` to `O=C(Nc1cccc(-c2cnc3c(NC(=O)c4cc(Cl)c(F)c(Cl)c4)nccn23)c1)c1ccc(F)c(Cl)c1`, the pIC50 rises from less than 4.52 to 5.89.

Going from `Nc1nccn2c(-c3cccc(NC(=O)Nc4cccc(Cl)c4Cl)c3)cnc12` to `Nc1nccn2c(-c3cccc(NC(=O)c4cccc(Cl)c4Cl)c3)cnc12`, the pIC50 rises from 5.90 to 6.19 (0.29 log units). The second is the more potent here.

`O=C(Nc1ccc(C(F)(F)F)cc1)Nc1cccc(-c2cnc3c(NC(=O)c4ccccc4)cccn23)c1` and `O=C(Nc1cccc(-c2cnc3c(NC(=O)c4ccccc4)cccn23)c1)Nc1cccc(C(F)(F)F)c1` are within 0.2 log units of each other in pIC50: 5.52 for the first, 5.37 for the second.

`Nc1nccn2c(-c3cccc(NC(=O)c4ccccc4)c3)cnc12` and `Nc1nccn2c(-c3cccc(NC(=O)Nc4ccccc4)c3)cnc12` are within 0.2 log units of each other in pIC50: 6.07 for the first, 5.94 for the second.

Going from `O=C(Nc1cccc(-c2cnc3c(NC(=O)c4ccccc4)cccn23)c1)c1cc(Cl)c(F)c(Cl)c1` to `O=C(Nc1cccc(-c2cnc3c(NC(=O)c4ccccc4)cccn23)c1)c1cccc(C(F)(F)F)c1`, the pIC50 falls from 5.13 to less than 4.52. The first is the more potent here.

Going from `Cc1ccc(NC(=O)Nc2cccc(-c3cnc4c(N)nccn34)c2)cc1` to `Nc1nccn2c(-c3cccc(NC(=O)Nc4ccc(Br)cc4)c3)cnc12`, the pIC50 falls from 5.57 to 5.33 (0.24 log units).

`O=C(Nc1cccc(-c2cnc3c(NC(=O)c4ccc(F)c(Cl)c4)nccn23)c1)c1ccc(F)c(Cl)c1` and `O=C(Nc1cccc(-c2cnc3c(NC(=O)c4ccc(Cl)c(Cl)c4)nccn23)c1)c1ccc(F)c(Cl)c1` are the same in pIC50: 6.05 for the first, 6.05 for the second.

`O=C(Nc1cccc(-c2cnc3c(NC(=O)c4ccccc4)cccn23)c1)Nc1cc(C(F)(F)F)cc(C(F)(F)F)c1` and `O=C(Nc1cccc(-c2cnc3c(NC(=O)c4ccccc4)cccn23)c1)Nc1ccc(Cl)c(C(F)(F)F)c1` are within 0.2 log units of each other in pIC50: 5.68 for the first, 5.63 for the second.

Going from `O=C(Nc1cccc(-c2cnc3c(NC(=O)c4ccccc4)cccn23)c1)c1cccc(OC(F)(F)F)c1` to `O=C(Nc1cccc(-c2cnc3c(NC(=O)c4ccc(OC(F)(F)F)cc4)nccn23)c1)c1ccc(F)c(Cl)c1`, the pIC50 rises from less than 4.52 to 6.36.

`O=C(Nc1cccc(-c2cnc3c(NC(=O)c4cc(Cl)cc(Cl)c4)nccn23)c1)c1ccc(F)c(Cl)c1` and `Cc1cc(C)cc(C(=O)Nc2nccn3c(-c4cccc(NC(=O)c5ccc(F)c(Cl)c5)c4)cnc23)c1` are within 0.2 log units of each other in pIC50: 5.94 for the first, 5.79 for the second.

`Nc1nccn2c(-c3cccc(NC(=O)Nc4ccc(C(F)(F)F)cc4)c3)cnc12` and `Nc1nccn2c(-c3cccc(NC(=O)c4ccc(Br)cc4)c3)cnc12` are within 0.2 log units of each other in pIC50: 5.96 for the first, 6.12 for the second.

Compared with `Cc1cc(C)cc(C(=O)Nc2nccn3c(-c4cccc(NC(=O)c5ccc(Cl)c(C(F)(F)F)c5)c4)cnc23)c1`, `O=C(Nc1cccc(-c2cnc3c(NC(=O)c4ccc(Br)cc4)nccn23)c1)c1ccc(Cl)c(C(F)(F)F)c1` is 1.00 log units lower in pIC50: 6.74 for the first, 5.74 for the second. The first is the more potent here.

Going from `Cc1ccc(C)c(C(=O)Nc2cccc(-c3cnc4c(N)nccn34)c2)c1` to `COc1cccc(C(=O)Nc2cccc(-c3cnc4c(N)nccn34)c2)c1C`, the pIC50 falls from 5.56 to 5.00 (0.56 log units). The first is the more potent here.

First: O=C(Nc1cccc(-c2cnc3c(NC(=O)c4cccc(Cl)c4Cl)nccn23)c1)c1ccc(F)c(Cl)c1
Second: Cc1ccc(C(=O)Nc2nccn3c(-c4cccc(NC(=O)c5ccc(F)c(Cl)c5)c4)cnc23)cc1Cl
The pIC50 of the first is 1.38 log units lower: 4.63 for the first, 6.01 for the second. The second is the more potent here.

Compared with `Nc1nccn2c(-c3cccc(NC(=O)c4cc(F)cc(F)c4)c3)cnc12`, `O=C(Nc1cccc(-c2cnc3c(NC(=O)c4ccc(F)c(C(F)(F)F)c4)nccn23)c1)c1ccc(F)c(Cl)c1` is 0.40 log units lower in pIC50: 6.34 for the first, 5.94 for the second. The first is the more potent here.

`O=C(Nc1cccc(-c2cnc3c(NC(=O)c4ccc(OC(F)(F)F)cc4)nccn23)c1)c1ccc(Cl)c(C(F)(F)F)c1` and `O=C(Nc1cccc(-c2cnc3c(NC(=O)c4ccc(C(F)(F)F)cc4)nccn23)c1)c1ccc(Cl)c(C(F)(F)F)c1` are within 0.2 log units of each other in pIC50: 5.88 for the first, 5.80 for the second.
